# Reference: patent US20160244437A1, “SUBSTITUTED PHENYLALANINE DERIVATIVES” (BAYER PHARMA AKTIENGESELLSCHAFT, priority 2013, published 2016)
# Counter-ions that a name gives are not always drawn.
# Target: T1, human factor XIa (Homo sapiens, UniProt P03951)
# T1 construct: purchased Kordia
# Assay: Measurement of FXIa inhibition (fluorogenic peptide substrate Boc-Glu(OBzl)-Ala-Arg-AMC)
# Assay type: biochemical
# Conditions: factor XIa from Kordia 0.45 nM, 15 min pre-incubation, 30 min at 22° C., fluorescence
# Experimental: The factor XIa inhibition of the substances according to the invention is determined using a biochemical test system which utilizes the reaction of a peptidic factor XIa substrate to determine the enzymatic activity of human factor XIa. Here, factor XIa cleaves from the peptic factor XIa substrate the C-terminal aminomethylcoumarin (AMC), the fluorescence of which is measured. The determinations are carried out in microtitre plates.
# Test substances are dissolved in dimethyl sulphoxide and serially diluted in dimethyl sulphoxide (3000 μM to 0.0078 μM; resulting final concentrations in the test: 50 μM to 0.00013 μM). In each case 1 μl of the diluted substance solutions is placed into the wells of white microtitre plates from Greiner (384 wells). Subsequently, the following are added successively: 20 μl of assay buffer (50 mmol/l Tris buffer pH 7.4; 100 mmol/l sodium chloride; 5 mmol/l calcium chloride; 0.1% bovine serum albumin) and 20 μl of factor XIa from Kordia (0.45 nM in assay buffer). After 15 min of incubation, the enzyme reaction is started by addition of 20 μl of the factor XIa substrate Boc-Glu(OBzl)-Ala-Arg-AMC dissolved in assay buffer (10 μM in assay buffer) from Bachem, the mixture is incubated at room temperature (22° C.) for 30 min and fluorescence is then measured (excitation: 360 nm, emission: 460 nm). The measured emissions of the test batches with test substance are compared to those of control batches without test substance (only dimethyl sulphoxide instead of test substance in dimethyl sulphoxide), and IC50 values are calculated from the concentration/activity relationships.
# T1 sequence (P03951 388-625 limits assumed): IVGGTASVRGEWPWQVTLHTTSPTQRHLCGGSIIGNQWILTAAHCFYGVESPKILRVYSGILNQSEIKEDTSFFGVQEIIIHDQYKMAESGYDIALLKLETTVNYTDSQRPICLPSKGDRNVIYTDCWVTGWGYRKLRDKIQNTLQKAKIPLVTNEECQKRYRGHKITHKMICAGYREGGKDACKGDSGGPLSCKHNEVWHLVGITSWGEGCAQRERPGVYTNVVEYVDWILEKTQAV
# T1 sequence (P03951 19-387 partner limits assumed): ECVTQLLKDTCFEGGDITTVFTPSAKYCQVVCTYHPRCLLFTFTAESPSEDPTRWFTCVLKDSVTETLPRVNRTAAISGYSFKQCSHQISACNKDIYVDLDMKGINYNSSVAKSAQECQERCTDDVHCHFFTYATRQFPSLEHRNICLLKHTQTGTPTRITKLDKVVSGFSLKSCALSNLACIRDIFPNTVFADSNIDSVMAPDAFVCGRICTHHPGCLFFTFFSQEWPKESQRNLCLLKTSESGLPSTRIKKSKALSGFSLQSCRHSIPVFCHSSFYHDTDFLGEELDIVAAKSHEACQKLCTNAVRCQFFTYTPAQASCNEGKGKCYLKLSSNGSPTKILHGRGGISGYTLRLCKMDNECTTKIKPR
row,Compound,IC50 [nM]
1,"CCN(CC)CCNC(=O)c1ccc(-c2cccc(C[C@H](NC(=O)[C@H]3CC[C@H](CN)CC3)C(=O)Nc3ccc4cn[nH]c4c3)c2)cc1 [Example 53, 3′-[(2S)-2-({[trans-4-(Aminomethyl)cyclohexyl]carbonyl}amino)-3-(1H-indazol-6-ylamino)-3-oxopropyl]-N-[2-(diethylamino)ethyl]biphenyl-4-carboxamide hydrochloride]",17
2,"Cc1cc(C(=O)N[C@@H]2CCCNC2=O)ccc1-c1cccc(C[C@H](NC(=O)[C@H]2CC[C@H](CN)CC2)C(=O)Nc2ccc3nc(C(F)(F)C(F)(F)F)[nH]c3c2)c1 [Example 63, 3′-[(2S)-2-({[trans-4-(Aminomethyl)cyclohexyl]carbonyl}amino)-3-oxo-3-{[2-(pentafluoroethyl)-1H-benzimidazol-6-yl]amino}propyl]-2-methyl-N-[(3R)-2-oxopiperidin-3-yl]biphenyl-4-carboxamide hydrochloride]",52
3,"CN1CCN(c2cc(-c3cccc(C[C@H](NC(=O)[C@H]4CC[C@H](CN)CC4)C(=O)Nc4ccc(-c5nnn[nH]5)cc4)c3)ccn2)CC1 [Example 65, N-alpha-{[trans-4-(Aminomethyl)cyclohexyl]carbonyl}-3-[2-(4-methylpiperazin-1-yl)pyridin-4-yl]-N-[4-(1H-tetrazol-5-yl)phenyl]-L-phenylalaninamide hydrochloride]",12
4,"CN1CCN(c2ncc(-c3cccc(C[C@H](NC(=O)[C@H]4CC[C@H](CN)CC4)C(=O)Nc4ccc(-c5nnn[nH]5)cc4)c3)cn2)CC1 [Example 69, N-alpha-{[trans-4-(Aminomethyl)cyclohexyl]carbonyl}-3-[2-(4-methylpiperazin-1-yl)pyrimidin-5-yl]-N-[4-(1H-tetrazol-5-yl)phenyl]-L-phenylalaninamide hydrochloride]",4.9
5,"CN(C)c1ccc(-c2cccc(C[C@H](NC(=O)[C@H]3CC[C@H](CN)CC3)C(=O)Nc3ccc(-c4nnn[nH]4)cc3)c2)cn1 [Example 71, N-alpha-{[trans-4-(Aminomethyl)cyclohexyl]carbonyl}-3-[6-(dimethylamino)pyridin-3-yl]-N-[4-(1H-tetrazol-5-yl)phenyl]-L-phenylalaninamide hydrochloride]",3.1
6,"NC[C@H]1CC[C@H](C(=O)N[C@@H](Cc2cccc(-c3cncc(N)c3)c2)C(=O)Nc2ccc(-c3nnn[nH]3)cc2)CC1 [Example 72, N-alpha-{[trans-4-(Aminomethyl)cyclohexyl]carbonyl}-3-(5-aminopyridin-3-yl)-N-[4-(1H-tetrazol-5-yl)phenyl]-L-phenylalaninamide hydrochloride]",5.3
7,"CN(C)c1ncc(-c2cccc(C[C@H](NC(=O)[C@H]3CC[C@H](CN)CC3)C(=O)Nc3ccc4[nH]c(=O)[nH]c4c3)c2)cn1 [Example 73, N-alpha-{[trans-4-(Aminomethyl)cyclohexyl]carbonyl}-3-[2-(dimethylamino)pyrimidin-5-yl]-N-(2-oxo-2,3-dihydro-1H-benzimidazol-5-yl)-L-phenylalaninamide hydrochloride]",25
8,"NC[C@H]1CC[C@H](C(=O)N[C@@H](Cc2cccc(-c3cnc(N4CCOCC4)nc3)c2)C(=O)Nc2ccc(-c3nnn[nH]3)cc2)CC1 [Example 74, N-alpha-{[trans-4-(Aminomethyl)cyclohexyl]carbonyl}-3-[2-(morpholin-4-yl)pyrimidin-5-yl]-N-[4-(1H-tetrazol-5-yl)phenyl]-L-phenylalaninamide hydrochloride]",2.1
9,"Cc1cnccc1-c1cccc(C[C@H](NC(=O)[C@H]2CC[C@H](CN)CC2)C(=O)Nc2ccc3[nH]c(=O)[nH]c3c2)c1 [Example 75, N-alpha-{[trans-4-(Aminomethyl)cyclohexyl]carbonyl}-3-(3-methylpyridin-4-yl)-N-(2-oxo-2,3-dihydro-1H-benzimidazol-5-yl)-L-phenylalaninamide hydrochloride]",35

# Further lines, results first:
row,IC50 [nM],Compound
1,59,"CN1CCN(c2cc(-c3cccc(C[C@H](NC(=O)[C@H]4CC[C@H](CN)CC4)C(=O)Nc4ccc5[nH]c(=O)[nH]c5c4)c3)ccn2)CC1 [Example 76, N-alpha-{[trans-4-(Aminomethyl)cyclohexyl]carbonyl}-3-[2-(4-methylpiperazin-1-yl)pyridin-4-yl]-N-(2-oxo-2,3-dihydro-1H-benzimidazol-5-yl)-L-phenylalaninamide hydrochloride]"
2,7.3,"CN1CCN(c2ccc(-c3cccc(C[C@H](NC(=O)[C@H]4CC[C@H](CN)CC4)C(=O)Nc4ccc(-c5nnn[nH]5)cc4)c3)cn2)CC1 [Example 77, N-alpha-{[trans-4-(Aminomethyl)cyclohexyl]carbonyl}-3-[6-(4-methylpiperazin-1-yl)pyridin-3-yl]-N-[4-(1H-tetrazol-5-yl)phenyl]-L-phenylalaninamide hydrochloride]"
3,3.1,"NC[C@H]1CC[C@H](C(=O)N[C@@H](Cc2cccc(-c3ccccc3C(F)(F)F)c2)C(=O)Nc2ccc(-c3nnn[nH]3)cc2)CC1 [Example 84, trans-4-(Aminomethyl)-N-{(25)-1-oxo-1-{[4-(1H-tetrazol-5-yl)phenyl]amino}-3-[2′-(trifluoromethyl)biphenyl-3-yl]propan-2-yl}cyclohexanecarboxamide hydrochloride]"
4,2.4,"NC[C@H]1CC[C@H](C(=O)N[C@@H](Cc2cccc(-c3ccnc(N4CCOCC4)c3)c2)C(=O)Nc2ccc(-c3nn[nH]n3)cc2)CC1 [Example 85, N-alpha-{[trans-4-(Aminomethyl)cyclohexyl]carbonyl}-3-[2-(morpholin-4-yl)pyridin-4-yl]-N-[4-(2H-tetrazol-5-yl)phenyl]-L-phenylalaninamide hydrochloride]"
5,29,"NC[C@H]1CC[C@H](C(=O)N[C@@H](Cc2cccc(-c3cnc(N4CCOCC4)nc3)c2)C(=O)Nc2ccc(-c3n[nH]c(=O)[nH]3)cc2)CC1 [Example 88, N-alpha-{[trans-4-(Aminomethyl)cyclohexyl]carbonyl}-3-[2-(morpholin-4-yl)pyrimidin-5-yl]-N-[4-(5-oxo-4,5-dihydro-1H-1,2,4-triazol-3-yl)phenyl]-L-phenylalaninamide hydrochloride]"
6,8.9,"NC[C@H]1CC[C@H](C(=O)N[C@@H](Cc2cccc(-c3cnc(O)nc3)c2)C(=O)Nc2ccc(-c3nnn[nH]3)cc2)CC1 [Example 99, N-alpha-{[trans-4-(Aminomethyl)cyclohexyl]carbonyl}-3-(2-hydroxypyrimidin-5-yl)-N-[4-(1H-tetrazol-5-yl)phenyl]-L-phenylalaninamide hydrochloride]"
7,8.6,"COCc1nnc(-c2ccc(NC(=O)[C@H](Cc3cccc(-c4ccccc4C(C)C)c3)NC(=O)[C@H]3CC[C@H](CN)CC3)cc2)[nH]1 [Example 104, trans-4-(Aminomethyl)-N-[(2S)-3-(2′-isopropylbiphenyl-3-yl)-1-({4-[3-(methoxymethyl)-4H-1,2,4-triazol-5-yl]phenyl}amino)-1-oxopropan-2-yl]cyclohexanecarboxamide hydrochloride]"
